Reference: ChEMBL document CHEMBL3045157, “Synthesis and evaluation of in vitro antitubercular activity and antimicrobial activity of some novel 4H-chromeno[2,3-d]pyrimidine via 2-amino-4-phenyl-4H-chromene-3-carbonitriles” (2011)
≈ marks a conversion by molar mass, not a printed value.

What was measured:
Assay type in all cases: functional
Aspergillus niger = experiment: Antifungal activity against Aspergillus niger MTCC 282 after 24 hr by serial dilution method
Staphylococcus aureus = experiment: Antibacterial activity against Staphylococcus aureus ATCC 25923 after 24 hr by serial dilution method; conditions: ATCC 25923, 24 h
Pseudomonas aeruginosa = experiment: Antibacterial activity against Pseudomonas aeruginosa MTCC 441 after 24 hr by serial dilution method; conditions: MTCC 441, 24 h
Streptococcus pyogenes = experiment: Antibacterial activity against Streptococcus pyogenes MTCC 443 after 24 hr by serial dilution method; conditions: MTCC 443, 24 h
[1] = tested on: Mycobacterium tuberculosis; experiment: Antitubercular activity against Mycobacterium tuberculosis H37Rv by agar microdilution method
Escherichia coli = experiment: Antibacterial activity against Escherichia coli ATCC 25922 after 24 hr by serial dilution method; conditions: ATCC 25922, 24 h

Molecule	MIC (Aspergillus niger)	MIC (Staphylococcus aureus)	MIC (Pseudomonas aeruginosa)	MIC (Streptococcus pyogenes)	MIC [1]	MIC (Escherichia coli)	MIC (Aspergillus niger; MTCC 282, 24 h)
NYSTATIN	100 µg/mL	–	–	–	–	–	–
S=c1[nH]c2c(c(=S)[nH]1)C(c1ccccc1)c1ccccc1O2 (stereo not given)	–	500 µg/mL (≈ 1540 µM)	250 µg/mL (≈ 771 µM)	500 µg/mL (≈ 1540 µM)	500 µg/mL (≈ 1540 µM)	250 µg/mL (≈ 771 µM)	1000 µg/mL (≈ 3080 µM)
O=c1[nH]cnc2c1C(c1ccccc1)c1ccccc1O2 (stereo not given)	–	250 µg/mL (≈ 905 µM)	250 µg/mL (≈ 905 µM)	500 µg/mL (≈ 1810 µM)	500 µg/mL (≈ 1810 µM)	250 µg/mL (≈ 905 µM)	500 µg/mL (≈ 1810 µM)
CC1(C)S[C@@H]2[C@H](NC(=O)[C@H](N)c3ccccc3)C(=O)N2[C@H]1C(=O)O [AMPICILLIN]	–	100 µg/mL (≈ 286 µM)	100 µg/mL (≈ 286 µM)	250 µg/mL (≈ 715 µM)	–	100 µg/mL (≈ 286 µM)	–
S=c1[nH]c2c(c(=S)[nH]1)C(c1ccccc1)c1c(ccc3ccccc13)O2 (stereo not given)	–	125 µg/mL (≈ 334 µM)	125 µg/mL (≈ 334 µM)	250 µg/mL (≈ 668 µM)	100 µg/mL (≈ 267 µM)	250 µg/mL (≈ 668 µM)	500 µg/mL (≈ 1340 µM)
Nc1nc(=S)[nH]c2c1C(c1ccccc1)c1ccc3ccccc3c1O2 (stereo not given)	–	500 µg/mL (≈ 1400 µM)	125 µg/mL (≈ 350 µM)	500 µg/mL (≈ 1400 µM)	1000 µg/mL (≈ 2800 µM)	500 µg/mL (≈ 1400 µM)	1000 µg/mL (≈ 2800 µM)
Nc1nc(=O)[nH]c2c1C(c1ccccc1)c1c(ccc3ccccc13)O2 (stereo not given)	–	62.5 µg/mL (≈ 183 µM)	500 µg/mL (≈ 1460 µM)	62.5 µg/mL (≈ 183 µM)	250 µg/mL (≈ 732 µM)	250 µg/mL (≈ 732 µM)	250 µg/mL (≈ 732 µM)
Nc1nc(=O)[nH]c2c1C(c1ccccc1)c1ccc3cccnc3c1O2 (stereo not given)	–	125 µg/mL (≈ 365 µM)	500 µg/mL (≈ 1460 µM)	125 µg/mL (≈ 365 µM)	125 µg/mL (≈ 365 µM)	500 µg/mL (≈ 1460 µM)	250 µg/mL (≈ 730 µM)
Nc1nc(=S)[nH]c2c1C(c1ccccc1)c1ccc3cccnc3c1O2 (stereo not given)	–	125 µg/mL (≈ 349 µM)	62.5 µg/mL (≈ 174 µM)	250 µg/mL (≈ 697 µM)	500 µg/mL (≈ 1390 µM)	62.5 µg/mL (≈ 174 µM)	500 µg/mL (≈ 1390 µM)
S=c1[nH]c2c(c(=S)[nH]1)C(c1ccccc1)c1ccc3ccccc3c1O2 (stereo not given)	–	125 µg/mL (≈ 334 µM)	250 µg/mL (≈ 668 µM)	250 µg/mL (≈ 668 µM)	500 µg/mL (≈ 1340 µM)	250 µg/mL (≈ 668 µM)	500 µg/mL (≈ 1340 µM)
O=c1[nH]cnc2c1C(c1ccccc1)c1c(ccc3ccccc13)O2 (stereo not given)	–	125 µg/mL (≈ 383 µM)	125 µg/mL (≈ 383 µM)	125 µg/mL (≈ 383 µM)	125 µg/mL (≈ 383 µM)	125 µg/mL (≈ 383 µM)	500 µg/mL (≈ 1530 µM)
Nc1nc(=S)[nH]c2c1C(c1ccccc1)c1ccccc1O2 (stereo not given)	–	250 µg/mL (≈ 813 µM)	125 µg/mL (≈ 407 µM)	250 µg/mL (≈ 813 µM)	500 µg/mL (≈ 1630 µM)	125 µg/mL (≈ 407 µM)	125 µg/mL (≈ 407 µM)
Nc1nc(=S)[nH]c2c1C(c1ccccc1)c1ccc(O)cc1O2 (stereo not given)	–	500 µg/mL (≈ 1550 µM)	125 µg/mL (≈ 387 µM)	250 µg/mL (≈ 773 µM)	500 µg/mL (≈ 1550 µM)	250 µg/mL (≈ 773 µM)	125 µg/mL (≈ 387 µM)
O=c1[nH]cnc2c1C(c1ccccc1)c1ccc3ccccc3c1O2 (stereo not given)	–	62.5 µg/mL (≈ 192 µM)	250 µg/mL (≈ 766 µM)	62.5 µg/mL (≈ 192 µM)	125 µg/mL (≈ 383 µM)	125 µg/mL (≈ 383 µM)	1000 µg/mL (≈ 3060 µM)
CO[C@H]1/C=C/O[C@@]2(C)Oc3c(C)c(O)c4c(O)c(c(/C=N/N5CCN(C)CC5)c(O)c4c3C2=O)NC(=O)/C(C)=C\C=C\[C@H](C)[C@H](O)[C@@H](C)[C@@H](O)[C@@H](C)[C@H](OC(C)=O)[C@@H]1C [RIFAMPIN]	–	–	–	–	40 µg/mL (≈ 48.6 µM)	–	–
Nc1nc(=O)[nH]c2c1C(c1ccccc1)c1ccc(O)cc1O2 (stereo not given)	–	125 µg/mL (≈ 407 µM)	125 µg/mL (≈ 407 µM)	250 µg/mL (≈ 814 µM)	125 µg/mL (≈ 407 µM)	250 µg/mL (≈ 814 µM)	250 µg/mL (≈ 814 µM)
Nc1nc(=O)[nH]c2c1C(c1ccccc1)c1ccccc1O2 (stereo not given)	–	125 µg/mL (≈ 429 µM)	62.5 µg/mL (≈ 215 µM)	125 µg/mL (≈ 429 µM)	500 µg/mL (≈ 1720 µM)	62.5 µg/mL (≈ 215 µM)	500 µg/mL (≈ 1720 µM)
Oc1ccc2c(c1)Oc1[nH]c(=S)[nH]c(=S)c1C2c1ccccc1 (stereo not given)	–	62.5 µg/mL (≈ 184 µM)	250 µg/mL (≈ 734 µM)	62.5 µg/mL (≈ 184 µM)	200 µg/mL (≈ 587 µM)	125 µg/mL (≈ 367 µM)	1000 µg/mL (≈ 2940 µM)
S=c1[nH]c2c(c(=S)[nH]1)C(c1ccccc1)c1ccc3cccnc3c1O2 (stereo not given)	–	62.5 µg/mL (≈ 166 µM)	125 µg/mL (≈ 333 µM)	62.5 µg/mL (≈ 166 µM)	200 µg/mL (≈ 533 µM)	125 µg/mL (≈ 333 µM)	500 µg/mL (≈ 1330 µM)
O=c1[nH]cnc2c1C(c1ccccc1)c1ccc3cccnc3c1O2 (stereo not given)	–	125 µg/mL (≈ 382 µM)	125 µg/mL (≈ 382 µM)	250 µg/mL (≈ 764 µM)	500 µg/mL (≈ 1530 µM)	250 µg/mL (≈ 764 µM)	500 µg/mL (≈ 1530 µM)
O=c1[nH]cnc2c1C(c1ccccc1)c1ccc(O)cc1O2 (stereo not given)	–	500 µg/mL (≈ 1710 µM)	250 µg/mL (≈ 855 µM)	500 µg/mL (≈ 1710 µM)	62.5 µg/mL (≈ 214 µM)	62.5 µg/mL (≈ 214 µM)	1000 µg/mL (≈ 3420 µM)
Nc1nc(=S)[nH]c2c1C(c1ccccc1)c1c(ccc3ccccc13)O2 (stereo not given)	–	250 µg/mL (≈ 699 µM)	500 µg/mL (≈ 1400 µM)	500 µg/mL (≈ 1400 µM)	1000 µg/mL (≈ 2800 µM)	500 µg/mL (≈ 1400 µM)	1000 µg/mL (≈ 2800 µM)
COC1=CC(=O)C[C@@H](C)[C@]12Oc1c(Cl)c(OC)cc(OC)c1C2=O [GRISEOFULVIN]	–	–	–	–	–	–	100 µg/mL (≈ 283 µM)
Nc1nc(=O)[nH]c2c1C(c1ccccc1)c1ccc3ccccc3c1O2 (stereo not given)	–	125 µg/mL (≈ 366 µM)	250 µg/mL (≈ 732 µM)	125 µg/mL (≈ 366 µM)	1000 µg/mL (≈ 2930 µM)	500 µg/mL (≈ 1460 µM)	500 µg/mL (≈ 1460 µM)
O=C(O)c1cn(C2CC2)c2cc(N3CCNCC3)c(F)cc2c1=O [CIPROFLOXACIN]	–	50 µg/mL (≈ 151 µM)	–	50 µg/mL (≈ 151 µM)	–	25 µg/mL (≈ 75.4 µM)	–
